Source: patent publication US20240199623A1 (ILDONG PHARMACEUTICAL CO., LTD., priority 2020, published 2024)
≈ marks a conversion by molar mass, not a printed value.

Legend:
[1] = Phosphate-buffered saline (PBS) solubility of compounds; type: physicochemical; conditions: aqueous buffer, thermodynamic from solid, PBS pH 7.5, 0.5 mg/mL, vortexed 90 min, filtered, LC-MS/MS, read-out: Solubility Range
Procedure: PBS solutions (pH 7.5) were prepared according to the following compositions and stored at 4° C. Test compounds were dissolved in PBS (pH 7.5) at 0.5 mg/mL and vortexed for 90 min. The PBS solution was sequentially filtered through a 0.45, 1.2, […] syringe filter. Concentration of test compounds were determined using LC-MS/MS with appropriate dilution of the samples.

human wild type-CFTR [2] = target: T1, human wild type-CFTR (Homo sapiens, UniProt P13569); experiment: Short-circuit current measurement; type: cell-based; parameters: expressed in transfected cells; conditions: FRT cells expressing human wild type-CFTR; Forskolin 20 μM signal used as 100% activity; read-out: Short-circuit current measurement (EC50) Concentration range
From the text: Forskolin (Tocris cat. #1099), CFTRinh-172 (Tocris cat. #3430), amphotericin B (Tocris cat. #6930), dimethyl sulfoxide (Sigma cat. #D4540), EVC4000 Multi-Channel V/I Clamp (World Precision Instruments, Sarasota, FL), PowerLab 4/35 (AD Instruments, Castle Hill, Australia), Labchart Pro 7, GraphPad Prism 5 (GraphPad Software, Inc.). Fisher rat thyroid (FRT) cells expressing human wild type-CFTR were provided by Dr. Alan Verkman (University of California, San Francisco) and grown in DMEM/F12 medium (1:1) supplemented with 10% FBS, 2 mM glutamine, 100 units/ml penicillin and 100 μg/ml streptomycin. Snapwell inserts containing CF TR-expressing FRT cells were mounted in Ussing chambers (Physiologic Instruments, San Diego, CA). […] Forskolin, test compounds, and CFTRinh-172 were added to the apical and basolateral bath solution. Apical membrane current and short-circuit current were measured with an EVC4000 Multi-Channel V/I Clamp (World Precision Instruments, Sarasota, FL) and recorded using PowerLab 4/35 (AD Instruments, Castle Hill, Australia). Data were collected and analyzed with ADInstruments acquisition software Labchart Pro 7 software. The sampling rate was 4 Hz.

human wild type-CFTR [3] = target: T1, human wild type-CFTR; experiment: Cell-based YFP assay; parameters: expressed in transfected cells; host or cells: CHO-K1 (Chinese hamster ovary); conditions: CHO-K1 cells expressing human wild type-CFTR and YFP-H148Q/I152L; forskolin 20 μM = 100% activity; read-out: Cell-based YFP Assay (EC50) Concentration Range
In short: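 CHO-K1 cells co-expressing human wild-type CFTR and YFP-H148Q/I152L halide sensor, grown 48 h at 37 °C, then in PBS. YFP quenching by I⁻ influx read at 37 °C after adding 140 mM I⁻ solution, sampled every 0.4 s for 14 s. Triplicates averaged; EC50 fitted.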

T1 sequence (P13569 whole entry): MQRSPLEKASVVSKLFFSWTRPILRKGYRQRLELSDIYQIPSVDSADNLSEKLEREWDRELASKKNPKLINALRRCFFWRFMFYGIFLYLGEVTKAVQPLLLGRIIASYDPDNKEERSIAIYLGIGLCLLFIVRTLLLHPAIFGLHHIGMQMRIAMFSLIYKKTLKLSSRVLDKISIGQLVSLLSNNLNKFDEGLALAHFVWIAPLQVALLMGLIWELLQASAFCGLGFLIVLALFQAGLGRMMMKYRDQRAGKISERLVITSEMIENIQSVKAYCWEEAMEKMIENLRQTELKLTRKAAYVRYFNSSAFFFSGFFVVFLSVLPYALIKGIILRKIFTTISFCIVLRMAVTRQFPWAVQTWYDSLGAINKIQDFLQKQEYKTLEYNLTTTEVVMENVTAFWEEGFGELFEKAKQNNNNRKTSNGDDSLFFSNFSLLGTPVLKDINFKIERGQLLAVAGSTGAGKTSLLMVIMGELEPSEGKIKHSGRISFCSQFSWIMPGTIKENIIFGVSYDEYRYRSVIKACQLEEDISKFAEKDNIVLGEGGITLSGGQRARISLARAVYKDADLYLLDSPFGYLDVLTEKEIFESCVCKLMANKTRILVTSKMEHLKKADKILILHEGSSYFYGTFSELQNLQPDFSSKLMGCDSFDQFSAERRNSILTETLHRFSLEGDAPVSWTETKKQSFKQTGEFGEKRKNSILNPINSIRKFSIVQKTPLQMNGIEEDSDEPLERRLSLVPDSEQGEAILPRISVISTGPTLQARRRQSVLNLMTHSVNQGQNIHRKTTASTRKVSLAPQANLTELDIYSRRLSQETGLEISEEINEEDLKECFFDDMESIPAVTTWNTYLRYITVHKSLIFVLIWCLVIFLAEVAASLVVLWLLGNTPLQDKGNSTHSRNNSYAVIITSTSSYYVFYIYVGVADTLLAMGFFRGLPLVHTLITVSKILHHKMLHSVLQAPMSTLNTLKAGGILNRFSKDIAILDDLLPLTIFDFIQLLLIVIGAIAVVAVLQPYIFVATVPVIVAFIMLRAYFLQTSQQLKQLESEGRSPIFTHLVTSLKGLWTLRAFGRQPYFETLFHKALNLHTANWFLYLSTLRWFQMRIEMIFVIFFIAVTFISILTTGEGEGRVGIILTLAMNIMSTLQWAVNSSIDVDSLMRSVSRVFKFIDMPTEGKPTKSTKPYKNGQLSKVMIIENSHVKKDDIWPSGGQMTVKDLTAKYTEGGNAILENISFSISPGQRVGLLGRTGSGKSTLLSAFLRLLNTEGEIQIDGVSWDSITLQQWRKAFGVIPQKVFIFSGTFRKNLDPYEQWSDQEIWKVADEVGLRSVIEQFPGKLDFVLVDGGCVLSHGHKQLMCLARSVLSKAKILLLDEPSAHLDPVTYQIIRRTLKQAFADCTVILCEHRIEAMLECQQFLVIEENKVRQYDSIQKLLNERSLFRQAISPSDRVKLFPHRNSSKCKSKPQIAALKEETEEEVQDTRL

Row | SMILES | solubility at 90 min [1] [µg/mL] | EC50 (human wild type-CFTR [2]) [µM] | EC50 (human wild type-CFTR [3]) [µM]
1 | COc1ccc(-c2ccnc3cc(C(=O)Nc4ccc(C(=O)O)cc4)nn23)cc1OC [Compound 14, 4-(7-(3,4-dimethoxyphenyl)pyrazolo[1,5-a]pyrimidine-2-carboxamido)benzoic acid] | 0.1 to 10 (≈ 0.239 to 23.9 µM) | ≥ 2 | 0.2 to 2
2 | COc1ccc(-c2ccnc3cc(C(=O)Nc4ccccn4)nn23)cc1OC [Compound 17, 7-(3,4-dimethoxyphenyl)-N-(pyridin-2-yl)pyrazolo[1,5-a] pyrimidine-2-carboxamide] | < 0.1 | < 0.2 | < 0.2
3 | CCOC(=O)CNC(=O)c1ccc(NC(=O)c2cc3nccc(-c4ccc(OC)c(OC)c4)n3n2)cc1 [Compound 28, ethyl (4-(7-(3,4-dimethoxyphenyl)pyrazolo [1,5-a]pyrimidine-2-carboxamido)benzoyl)glycinate] | < 0.1 | < 0.2 | < 0.2
4 | COC(=O)c1ccc(NC(=O)c2cc3nccc(-c4ccc(OC)c(OC)c4)n3n2)nc1 [Compound 31, methyl 6-(7-(3,4-dimethoxyphenyl)pyrazolo [1,5-a]pyrimidine-2-carboxamido)nicotinate] | < 0.1 | < 0.2 | < 0.2
5 | COc1ccc(-c2ccnc3cc(C(=O)Nc4ccc(C(=O)O)cn4)nn23)cc1OC [Compound 78, 6-(7-(3,4-dimethoxyphenyl)pyrazolo[1,5-a]pyrimidine-2-carboxamido) nicotinic acid] | – | 0.2 to 2 | 0.2 to 2
6 | CCOC(=O)N1CCN(C(=O)c2cc3nccc(-c4ccc(OC)c(OC)c4)n3n2)CC1 [Compound 86, ethyl 4-(7-(3,4-dimethoxyphenyl)pyrazolo[1,5-a]pyrimidine-2-carbonyl) piperazine-1-carboxylate] | – | ≥ 2 | 0.2 to 2
7 | COc1ccc(-c2ccnc3cc(C(=O)Nc4ccc(C(=O)O)cc4Cl)nn23)cc1OC [Compound 106, 3-chloro-4-(7-(3,4-dimethoxyphenyl)pyrazolo [1,5-a]pyrimidine-2-carboxamido)benzoic acid] | < 0.1 | ≥ 2 | < 0.2
8 | CCOC(=O)N1CCN(C(=O)c2cc3nccc(-c4ccc(OC)c(OC)c4)n3n2)CC1 [Compound 111, ethyl 4-(7-(3,4-dimethoxyphenyl)pyrazolo[1,5-a]pyrimidine-2-carbonyl) piperazine-1-carboxylate] | – | ≥ 2 | 0.2 to 2
9 | COc1ccc(-c2ccnc3cc(C(=O)Nc4ccc(C(=O)N5CCOCC5)cc4C)nn23)cc1OC [Compound 127, 7-(3,4-dimethoxyphenyl)-N-(2-methyl-4-(morpholine-4-carbonyl)phenyl)pyrazolo[1,5-a] pyrimidine-2-carboxamide] | < 0.1 | 0.2 to 2 | 0.2 to 2
10 | COC(=O)c1ccc2c(c1)CCN2C(=O)c1cc2nccc(-c3ccc(OC)c(OC)c3)n2n1 [Compound 130, methyl 1-(7-(3,4-dimethoxyphenyl)pyrazolo [1,5-a]pyrimidine-2-carbonyl)indoline-5-carboxylate] | < 0.1 | 0.2 to 2 | < 0.2
11 | COC(=O)c1ccc2c(c1)CN(C(=O)c1cc3nccc(-c4ccc(OC)c(OC)c4)n3n1)CC2 [Compound 131, methyl 2-(7-(3,4-dimethoxyphenyl)pyrazolo [1,5-a]pyrimidine-2-carbonyl)-1,2,3,4-tetrahydroisoquinoline-7-carboxylate] | < 0.1 | < 0.2 | < 0.2
12 | COC(=O)c1ccc2c(c1)N(C(=O)c1cc3nccc(-c4ccc(OC)c(OC)c4)n3n1)CC2 [Compound 132, methyl 1-(7-(3,4-dimethoxyphenyl)pyrazolo [1,5-a]pyrimidine-2-carbonyl)indoline-6-carboxylate] | < 0.1 | 0.2 to 2 | < 0.2
13 | COC(=O)c1ccc2c(c1)CCCN2C(=O)c1cc2nccc(-c3ccc(OC)c(OC)c3)n2n1 [Compound 133, methyl 1-(7-(3,4-dimethoxyphenyl)pyrazolo [1,5-a]pyrimidine-2-carbonyl)-1,2,3,4-tetrahydroquinoline-6-carboxylate] | < 0.1 | < 0.2 | < 0.2
14 | COc1ccc(-c2ccnc3cc(C(=O)Nc4ccc(C(=O)N5CCN(C)CC5)cc4Cl)nn23)cc1OC [Compound 137, N-(2-chloro-4-(4-methylpiperazine-1-carbonyl)phenyl)-7-(3,4-dimethoxyphenyl)pyrazolo [1,5-a]pyrimidine-2-carboxamide] | – | 0.2 to 2 | 0.2 to 2
15 | COc1ccc(-c2ccnc3cc(C(=O)Nc4ccc(C(=O)OCCCN5CCOCC5)cn4)nn23)cc1OC [Compound 142, 3-morpholinopropyl 6-(7-(3,4-dimethoxyphenyl)pyrazolo [1,5-a]pyrimidine-2-carboxamido)nicotinate] | < 0.1 | < 0.2 | < 0.2
16 | COc1ccc(-c2ccnc3cc(C(=O)Nc4ccc(C(=O)N[C@H](C(=O)N5CCN(C)CC5)C(C)C)cc4)nn23)cc1OC [Compound 146, (S)-7-(3,4-dimethoxyphenyl)-N-(4-((3-methyl-1-(4-methylpiperazin-1-yl)-1-oxobutan-2-yl)carbamoyl)phenyl) pyrazolo[1,5-a]pyrimidine-2-carboxamide] | < 0.1 | < 0.2 | < 0.2
17 | COc1ccc(-c2ccnc3cc(C(=O)Nc4ccc(OC(=O)[C@@H](NC(=O)OC(C)(C)C)C(C)C)cc4)nn23)cc1OC [Compound 200, 4-(7-(3,4-dimethoxyphenyl)pyrazolo[1,5-a]pyrimidine-2-carboxamido)phenyl(tert-butoxycarbonyl)-L-valinate] | – | < 0.2 | < 0.2
18 | COc1ccc(-c2ccnc3cc(C(=O)Nc4ccc(NC(=O)OC(C)(C)C)cc4)nn23)cc1OC [Compound 256, tert-butyl (4-(7-(3,4-dimethoxyphenyl)pyrazolo [1,5-a]pyrimidine-2-carboxamido)phenyl) carbamate] | < 0.1 | < 0.2 | < 0.2
19 | COc1ccc(-c2ccnc3cc(C(=O)Nc4ccc(N5CCCC5)cc4)nn23)cc1OC [Compound 277, 7-(3,4-dimethoxyphenyl)-N-(4-(pyrrolidin-1-yl)phenyl)pyrazolo[1,5-a] pyrimidine-2-carboxamide] | < 0.1 | < 0.2 | < 0.2
20 | COc1ccc(-c2ccnc3cc(C(=O)Nc4ccc(NC(=O)CN)cc4)nn23)cc1OC [Compound 283, N-(4-(2-aminoacetamido)phenyl)-7-(3,4-dimethoxyphenyl)pyrazolo [1,5-a]pyrimidine-2-carboxamide] | < 0.1 | – | 0.2 to 2
21 | COc1ccc(-c2ccnc3cc(C(=O)Nc4ccc(NC(=O)[C@H](C)N)cc4)nn23)cc1OC [Compound 284, (S)-N-(4-(2-amino-propanamido)phenyl)-7-(3,4-dimethoxyphenyl)pyrazolo [1,5-a]pyrimidine-2-carboxamide] | 0.1 to 10 (≈ 0.217 to 21.7 µM) | – | < 0.2
22 | COc1ccc(-c2ccnc3cc(C(=O)Nc4ccc(N5CCC(=O)CC5)cc4)nn23)cc1OC [Compound 285, 7-(3,4-dimethoxyphenyl)-N-(4-(4-oxopiperidin-1-yl)phenyl)pyrazolo [1,5-a]pyrimidine-2-carboxamide] | – | < 0.2 | < 0.2
23 | COc1ccc(-c2ccnc3cc(C(=O)Nc4ccc(N5CCCC5)cn4)nn23)cc1OC [Compound 289, 7-(3,4-dimethoxyphenyl)-N-(5-(pyrrolidin-1-yl)pyridin-2-yl)pyrazolo[1,5-a]pyrimidine-2-carboxamide] | – | < 0.2 | < 0.2
